Data on 6 compounds can be found in article PMC3345971 (Bioorganic & medicinal chemistry, 2012).

As usually defined, the pIC50 is the IC50 on a negative log10 scale, so that one unit is a factor of ten.

Test [1] has as its system SERT. Particulars: cited from earlier work.
In test [2] the test system is DAT. To be noted: cited from earlier work; for pIC50: read-out: DAT IC50, oxatropenes substituted at the C3 position.
Test [3] concerns the target human dopamine transporter (hDAT) (Macaca fascicularis, UniProt Q9GJT6). As to the kind of experiment: Inhibition of [3H]WIN35,428 binding to the dopamine transporter. Particulars: DAT over SERT.

pIC50: −log10 of the molar value.

Chain of human dopamine transporter (hDAT) (Q9GJT6 whole entry): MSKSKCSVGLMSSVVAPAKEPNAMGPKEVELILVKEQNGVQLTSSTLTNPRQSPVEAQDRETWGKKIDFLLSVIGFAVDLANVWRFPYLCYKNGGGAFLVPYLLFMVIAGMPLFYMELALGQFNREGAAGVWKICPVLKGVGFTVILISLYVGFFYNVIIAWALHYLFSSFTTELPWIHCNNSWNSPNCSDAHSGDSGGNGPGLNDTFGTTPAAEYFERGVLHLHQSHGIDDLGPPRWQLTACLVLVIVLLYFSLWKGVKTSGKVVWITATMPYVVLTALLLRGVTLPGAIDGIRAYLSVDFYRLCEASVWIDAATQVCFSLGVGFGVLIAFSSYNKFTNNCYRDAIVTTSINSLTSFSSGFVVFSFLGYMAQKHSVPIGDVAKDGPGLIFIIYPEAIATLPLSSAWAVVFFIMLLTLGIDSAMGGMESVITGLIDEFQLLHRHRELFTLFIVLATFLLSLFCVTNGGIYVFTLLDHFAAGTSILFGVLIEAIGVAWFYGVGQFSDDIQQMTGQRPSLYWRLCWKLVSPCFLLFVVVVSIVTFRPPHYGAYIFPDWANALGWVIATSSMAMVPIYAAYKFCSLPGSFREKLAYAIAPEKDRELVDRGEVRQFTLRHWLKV

Take “2β-Carbomethoxy-3 β-[2-furylphenyl]-8-azabicyclo[3.2.1]tropane”: the SERT binding in test [1] (reported by Tamagnan et al) is given as 0.15 nM. Besides, the DAT binding in test [2] (reported by Tamagnan et al) is on record as 3.76 nM.

As to “2β-carbomethoxy-3β-(2-naphthyl)-8-aza-bicyclo[3.2.1]octanes”, in test [1], the “inhibition of SERT” value is recorded as 2.19 nM. For the same compound, in test [2], the “inhibition of DAT” value is 0.49 nM.

As to `COC(=O)C1=C(c2cccc3ccccc23)CC2CCC1O2` (centres unmarked) [oxatropene with 1-naphthyl], the negative logarithm of the IC50 (pIC50) in test [2] was 5.76.

With `COC(=O)C1=C(c2ccc3cc4ccccc4cc3c2)CC2CCC1O2` (centres unmarked) [oxatropene with 2-anthracenyl], the pIC50 in test [2] is under 4.40.

In the case of `COC(=O)C1=C(c2ccc3ccccc3c2)CC2CCC1O2` (centres unmarked) [oxatropene with 2-naphthyl], the pIC50 in test [2] is 7.70.

With “(R,S)-3-[2-Benzothiophen-2-yl] -8-oxa-bicyclo[3.2.1]oct-2-ene-2carboxylic acid methyl ester [14m]”, the “selectivity for DAT vs. SERT” value in test [3] was found to be 177 fold.
